As usually defined, the Ki is the dissociation constant of the complex between target and ligand, obtained from inhibition or displacement.

Where a name gives a salt, the structure may show the parent alone. Read-outs that look alike come from different tables or passages of the source.

Ki data for 32 molecules are collected here from patent US6610689B2, “HIV protease inhibitors based on amino acid derivatives” (priority 2001, dated 2003).

This assay has as its target T1, HIV protease (Human immunodeficiency virus type 1 group M subtype B, UniProt P04585).
T1 construct: A third viral enzyme known as protease then cleaves the polyproteins
The experiment in a line: Enzymatic Assay for Determining the Inhibition Constant (Ki) of Synthetic Compounds Targeting the HIV Protease (fluorometric FRET assay). Type of assay: biochemical. The essentials:
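Fluorometric FRET assay following protease cleavage of an EDANS/DABCYL-labelled substrate. Initial velocities without (Vo) and with inhibitor (Vi) measured; Ki derived from the Henderson equation using inhibitor and substrate concentrations and Km.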

Setting [1] is: Table 1, compounds of formula I, read-out: Ki (anti-protease activity).

In the case of `Cc1ccc(S(=O)(=O)N(CC(C)C)[C@@H](CCCCNC(=O)[C@H](Cc2ccccc2)N(C)C(=O)OC(C)(C)C)C(=O)O)cc1` [Example 81, Nα-Isobutyl-Nα-(4-methylbenzenesulfonyl)-Nε-(N′α-tert-butoxycarbonyl-N′α-methyl-L-phenylalanyl)-L-lysine], the Ki was determined as 3.8 nM.

On to `CSCC[C@H](NC(=O)OC(C)(C)C)C(=O)NCCCC[C@@H](C(=O)O)N(CC(C)C)S(=O)(=O)c1ccc(C)cc1` [Example 82, Nα-Isobutyl-Nα-(4-methylbenzenesulfonyl)-Nε-(N′α-tert-butoxycarbonyl-L-methionyl)-L-lysine], for which the affinity, expressed as Ki, was 65 nM.

As to `Cc1ccc(CSC[C@H](NC(=O)OC(C)(C)C)C(=O)NCCCC[C@@H](C(=O)O)N(CC(C)C)S(=O)(=O)c2ccc(C)cc2)cc1` [Example 83, Nα-Isobutyl-Nα-(4-methylbenzenesulfonyl)-Nε-[N′α-tert-butoxycarbonyl-S-(4-methylbenzyl)-L-cysteinyl]-L-lysine], the Ki (Anti-protease activity of Ne-amino acid substituted L-lysine derivatives and analogs of formula I, read-out: Ki) worked out at 62 nM.

In turn, `Cc1ccc(S(=O)(=O)N(CC(C)C)[C@@H](CCCCNC(=O)[C@@H](NC(=O)OC(C)(C)C)[C@@H](C)OCc2ccccc2)C(=O)O)cc1` [Example 84, Nα-Isobutyl-Nα-(4-methylbenzenesulfonyl)-Nε-(N′α-tert-butoxyearbonyl-O-benzyl-L-threonyl)-L-lysine] had a Ki of 163 nM.

With `Cc1ccc(S(=O)(=O)N(CC(C)C)[C@@H](CCCCNC(=O)[C@H](Cc2cn(Cc3ccccc3)cn2)NC(=O)OC(C)(C)C)C(=O)O)cc1` [Example 85, Nα-Isobutyl-Nα-(4-methylbenzenesulfonyl)-Nε-(N′α-tert-butoxycarbonyl-Nτ-benzyl-L-histidinyl)-L-lysine], the Ki was determined as 124 nM.

`Cc1ccc(S(=O)(=O)N(CC(C)C)[C@@H](CCCCNC(=O)[C@H](Cc2ccc(OCc3ccccc3)cc2)NC(=O)OC(C)(C)C)C(=O)O)cc1` [Example 87, Nα-Isobutyl-Nα-(4-methylbenzenesulfonyl)-Nε-(N′α-tert-butoxycarbonyl-O-benzyl-L-tyrosyl)-L-lysine] showed a Ki of 49 nM.

`CN[C@@H](Cc1ccccc1)C(=O)NCCCC[C@@H](C(=O)O)N(CC(C)C)S(=O)(=O)c1ccc(C)cc1` [Example 88, Nα-Isobutyl-Nα-(4-methylbenzenesulfonyl)-Nε-(N′α-methyl-L-phenylalanyl)-L-lysine] gave a Ki of 2.1 nM.

Molecule `CSCC[C@H](N)C(=O)NCCCC[C@@H](C(=O)O)N(CC(C)C)S(=O)(=O)c1ccc(C)cc1` [Example 89, Nα-Isobutyl-Nα-(4-methylbenzenesulfonyl)-Nε-(L-methionyl)-L-lysine] yielded a Ki of 33 nM.

On to `Cc1ccc(CSC[C@H](N)C(=O)NCCCC[C@@H](C(=O)O)N(CC(C)C)S(=O)(=O)c2ccc(C)cc2)cc1` [Example 90, Nα-Isobutyl-Nα-(4-methylbenzenesulfonyl)-Nε-[S-(4-methylbenzyl)-L-cysteinyl]-L-lysine], for which the Ki amounted to 29 nM.

Turning to `Cc1ccc(S(=O)(=O)N(CC(C)C)[C@@H](CCCCNC(=O)[C@@H](N)[C@@H](C)OCc2ccccc2)C(=O)O)cc1` [Example 91, Nα-Isobutyl-Nα-(4-methylbenzenesulfonyl)-Nε-(O-benzyl-L-threonyl)-L-lysine], the affinity, expressed as Ki, was 10 nM.

In turn, `Cc1ccc(S(=O)(=O)N(CC(C)C)[C@@H](CCCCNC(=O)[C@@H](N)Cc2cn(Cc3ccccc3)cn2)C(=O)O)cc1` [Example 92, Nα-Isobutyl-Nα-(4-methylbenzenesulfonyl)-Nε-(Nτ-benzyl-L-histidinyl)-L-lysine] registered a Ki above 300 nM.

`Cc1ccc(S(=O)(=O)N(CC(C)C)[C@@H](CCCCNC(=O)[C@@H](N)Cc2c[nH]c3ccccc23)C(=O)O)cc1` [Example 93, Nα-Isobutyl-Nα-(4-methylbenzenesulfonyl)-Nε-(L-tryptophanyl)-L-lysine] had a Ki of 2.1 nM.

The molecule `Cc1ccc(S(=O)(=O)N(CC(C)C)[C@@H](CCCCNC(=O)[C@@H](N)Cc2ccc(OCc3ccccc3)cc2)C(=O)O)cc1` [Example 94, Nα-Isobutyl-Nα-(4-methylbenzenesulfonyl)-Nε-(O-benzyl-L-tyrosyl)-L-lysine] displayed a Ki of 177 nM.

`Cc1ccc(S(=O)(=O)N(CC(C)C)[C@H](CO)CCCCNC(=O)[C@H](Cc2ccccc2)NC(=O)c2ccccc2)cc1` [Example 95, (2S,2′S) 2-N-Isobutyl-2-N-(4-methylbenzenesulfonyl)-6-N-(N′α-benzoyl-S-phenylalanyl)-2,6-diaminohexanol] displayed a Ki of 54 nM.

For `Cc1ccc(S(=O)(=O)N[C@@H](Cc2ccccc2)C(=O)NCCCC[C@@H](CO)N(CC(C)C)S(=O)(=O)c2ccc(C)cc2)cc1` [Example 96, (2S,2′S) 2-N-Isobutyl-2-N-(4-methylbenzenesulfonyl)-6-N-[N′α-(4-methylbenzenesulfonyl)-S-phenylalanyl]-2,6-diaminohexanol], the inhibitory constant (Ki) was determined as 16 nM.

For `Cc1ccc(S(=O)(=O)N[C@@H](Cc2c[nH]c3ccccc23)C(=O)NCCCC[C@@H](CO)N(CC(C)C)S(=O)(=O)c2ccc(C)cc2)cc1` [Example 97, (2S,2′S) 2-N-Isobutyl-2-N-(4-methylbenzenesulfonyl)-6-N-[N′α-(4-methylbenzenesulfonyl)-S-tryptophanyl]-2,6-diaminohexanol], the Ki stood at 3.6 nM.

The molecule `CC(=O)N[C@@H](Cc1c[nH]c2ccccc12)C(=O)NCCCC[C@@H](C(=O)O)N(CC(C)C)S(=O)(=O)c1ccc(C)cc1` [Example 99, Nα-Isobutyl-Nα-(4-methylbenzenesulfonyl)-Nε-(N′α-acetyl-L-tryptophanyl)-L-lysine] yielded an inhibition constant Ki of 0.438 nM.

Molecule `Cc1ccc(S(=O)(=O)N(CC(C)C)[C@@H](CCCCNC(=O)[C@H](Cc2c[nH]c3ccccc23)NC(=O)C(C)(C)C)C(=O)O)cc1` [Example 100, Nα-Isobutyl-Nα-(4-methylbenzenesulfonyl)-Nε-(N′α-pivaloyl-L-tryptophanyl)-L-lysine] showed a Ki of 0.388 nM.

For the molecule `Cc1ccc(S(=O)(=O)N(CC(C)C)[C@@H](CCCCNC(=O)[C@H](Cc2ccccc2)NC(=O)C(F)(F)F)C(=O)O)cc1` [Example 101, Nα-Isobutyl-Nα-(4-methylbenzenesulfonyl)-Nε-(N′α-trifluoroacetyl-L-phenylalanyl)-L-lysine], the Ki is 2.9 nM.

Take `Cc1ccc(S(=O)(=O)N[C@@H](Cc2c[nH]c3ccccc23)C(=S)NCCCC[C@@H](CO)N(CC(C)C)S(=O)(=O)c2ccc(C)cc2)cc1` [Example 102]: the Ki is 51 nM.

For the molecule `Cc1ccc(S(=O)(=O)NC(Cc2c[nH]c3ccccc23)C(=NC#N)NCCCCC(C(=O)O)N(CC(C)C)S(=O)(=O)c2ccc(C)cc2)cc1` [Example 103, Nα-Isobutyl-Nα-(4-methylbenzenesulfonyl)-Nε-[N′α-(4-methylbenzenesulfonyl)-L-tryptophanyl-N-cyanoamidine]-L-lysine], the Ki worked out at 1.1 nM.

`Cc1ccc(S(=O)(=O)N(CC(C)C)C(CCCCNC(=O)C(Cc2c[nH]c3ccccc23)NS(=O)(=O)c2ccccc2)C(=O)OCC(O)CO)cc1` [Example 104, Nα-Isobutyl-Nα-(4-methylbenzenesulfonyl)-Nε-(N′α-benzenesulfonyl-L-tryptophanyl)-L-lysine 2,3-Dihydroxypropyl Ester]: the Ki is above 300 nM.

For the molecule `Cc1ccc(S(=O)(=O)N(CC(C)C)[C@@H](CCCCNC(=O)CNc2ccccc2)C(=O)O)cc1` [Example 105, Nα-Isobutyl-Nα-(4-methylbenzenesulfonyl)-Nε-(N′α-phenylglycyl)-L-lysine], the Ki under setting [1] was found to be 7.7 nM.

`Cc1ccc(S(=O)(=O)N(CC(C)C)[C@@H](CCCCNC(=O)CNc2cccnc2)C(=O)O)cc1` [Example 106, Nα-Isobutyl-Nα-(4-methylbenzenesulfonyl)-Nε-[N′α-(3-pyridyl)glycyl]-L-lysine]: the inhibition constant (Ki) was above 300 nM.

`COc1cccc(CNCC(=O)NCCCC[C@@H](C(=O)O)N(CC(C)C)S(=O)(=O)c2ccc(C)cc2)c1OC` [Example 107, Nα-Isobutyl-Nα-(4-methylbenzenesulfonyl)-Nε-[N′α-(2,3-dimethoxybenzyl)glycyl]-L-lysine] showed a Ki of 52 nM.

As to `Cc1ccc(S(=O)(=O)N(CC(C)C)[C@@H](CCCCNC(=O)CNc2ccccn2)C(=O)O)cc1` [Example 108, Nα-Isobutyl-Nα-(4-methylbenzenesulfonyl)-Nε-[N′α-(2-pyridyl)glycyl]-L-lysine], the Ki under setting [1] is above 300 nM.

For the molecule `Cc1ccc(S(=O)(=O)N(CC(C)C)[C@@H](CCCCNC(=O)CNCCN2CCCCC2)C(=O)O)cc1` [Example 110, Nα-Isobutyl-Nα-(4-methylbenzenesulfonyl)-Nε-[N′α-(piperidinyl-N-ethyl)glycyl]-L-lysine Trifluoroacetic Acid Salt], the Ki under setting [1] is above 300 nM.

In the case of `Cc1ccc(S(=O)(=O)N(CC(C)C)[C@@H](CCCCNC(=O)CNCCN2CCOCC2)C(=O)O)cc1` [Example 111, Nα-Isobutyl-Nα-(4-methylbenzenesulfonyl)-Nε-[N′α-(4-niorpholinyl-N-ethyl)glycyl]-L-lysine], the Ki is above 300 nM.

For the molecule `Cc1ccc(S(=O)(=O)N(CC(C)C)[C@@H](CCCCNC(=O)CNc2ccncc2)C(=O)O)cc1` [Example 112, Nα-Isobutyl-Nα-(4-methylbenzenesulfonyl)-Nε-[N′α-(4-pyridyl)glycyl]-L-lysine], the Ki under setting [1] was above 300 nM.

On to `Cc1ccc(S(=O)(=O)N(CC(C)C)[C@@H](CCCCNC(=O)CNc2cnc3ccccc3c2)C(=O)O)cc1` [Example 113, Nα-Isobutyl-Nα-(4-methylbenzenesulfonyl)-Nε-[N′α-(3-quinolyl)glycyl]-L-lysine], for which the Ki turned out to be 12 nM.

As to `Cc1ccc(S(=O)(=O)N(CC(C)C)[C@@H](CCCCNC(=O)CN(Cc2ccccc2)c2ccccc2)C(=O)O)cc1` [Example 114, Nα-Isobutyl-Nα-(4-methylbenzenesulfonyl)-Nε-(N′α-benzyl-N′α-phenylglycyl)-L-lysine], the Ki under setting [1] was found to be 0.937 nM.

With `Cc1ccc(S(=O)(=O)N(CC(C)C)[C@@H](CCCCNC(=O)CN(C)c2ccccc2)C(=O)O)cc1` [Example 115, Nα-Isobutyl-Nα-(4-methylbenzenesulfonyl)-Nε-(N′α-methyl-N′α-phenylglycyl)-L-lysine], the Ki under setting [1] came to 12 nM.
